System: Mycobacteria including drug resistant strains, in particular Mycobacterium tuberculosis, M. bovis, M. avium, M. leprae and M. marinum
Format: cell-based

COc1nc2ccc(Br)cc2cc1[C@@H](c1ccccc1)[C@@](O)(CCN(C)C)c1cccc2ccccc12.O=C(O)/C=C/C(=O)O [Present fumarate salt, (alpha S, beta R)-6-bromo-alpha-[2-(dimethylamino)ethyl]-2-methoxy-alpha-1-naphthalenyl-beta-phenyl-3-quinolineethanol (2E)-2-butenedioate (1:1)]
activity against Mycobacteria: shows activity
